# According to the supplement of paper PMC10307832:
# Assays:
# Experiment in all cases: relative viability (nuclei count vs DMSO), 5 days (fraction); higher = more cells survive
# [1] = compound: COC1=CC=C(C=C1)CN2C=CC3=C2C=C(C=C3)C(=O)NO + COc1cccc2cc(-c3nc([C@H]4CC[C@H](C(=O)O)CC4)n4ncnc(N)c34)[nH]c12 [OSI-027] (partner 0.5 µM)
# Method in brief: (§1)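 Five library-drug doses in √10 steps were combined with a fixed anchor-drug dose, or a single drug was given alone, by pin tool to lung cancer cell lines in 1536-well plates the day after seeding. Nuclei were stained and counted after 5 days. Relative viability is the nuclei count in treated wells over that in vehicle wells, taken as the median of duplicate plates.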
# [2] = compound: COC1=CC=C(C=C1)CN2C=CC3=C2C=C(C=C3)C(=O)NO + O=C(CCCCCCC(=O)Nc1ccccc1)NO [Vorinostat] (partner 1 µM)
# Method in brief: as §1
# Veliparib + Navitoclax = compound: C[C@]1(c2nc3c(C(N)=O)cccc3[nH]2)CCCN1 [Veliparib] + CC1(C)CCC(c2ccc(Cl)cc2)=C(CN2CCN(c3ccc(C(=O)NS(=O)(=O)c4ccc(N[C@H](CCN5CCOCC5)CSc5ccccc5)c(S(=O)(=O)C(F)(F)F)c4)cc3)CC2)C1 [Navitoclax] (partner 0.5 µM)
# Method in brief: as §1
# Veliparib + Linsitinib = compound: C[C@]1(c2nc3c(C(N)=O)cccc3[nH]2)CCCN1 [Veliparib] + C[C@]1(O)C[C@@H](c2nc(-c3ccc4ccc(-c5ccccc5)nc4c3)c3c(N)nccn32)C1 [Linsitinib] (partner 1 µM)
# Method in brief: as §1
Cell Line,relative viability ([1]; first compound 0.08 µM),relative viability ([1]; first compound 0.253 µM),relative viability ([1]; first compound 0.8 µM),relative viability ([1]; first compound 2.53 µM),relative viability ([1]; first compound 8 µM),relative viability ([2]; first compound 0.08 µM),relative viability ([2]; first compound 0.8 µM),relative viability ([2]; first compound 2.53 µM),relative viability ([2]; first compound 8 µM),relative viability (Veliparib + Navitoclax; first compound 0.02 µM),relative viability (Veliparib + Navitoclax; first compound 0.06325 µM),relative viability (Veliparib + Navitoclax; first compound 0.2 µM),relative viability (Veliparib + Navitoclax; first compound 0.6325 µM),relative viability (Veliparib + Navitoclax; first compound 2 µM),relative viability (Veliparib + Linsitinib; first compound 0.02 µM),relative viability (Veliparib + Linsitinib; first compound 0.06325 µM),relative viability (Veliparib + Linsitinib; first compound 0.2 µM),relative viability (Veliparib + Linsitinib; first compound 0.6325 µM),relative viability (Veliparib + Linsitinib; first compound 2 µM),relative viability ([2]; first compound 0.253 µM)
PC-3 [JPC-3],0.766,0.781,0.726,0.813,0.761,0.786,0.668,0.756,0.587,0.742,0.77,0.801,0.749,0.734,0.929,0.921,0.917,0.883,0.972,–
PC-14,0.89,0.87,0.739,0.857,0.658,0.21,0.725,0.733,0.782,0.991,1.05,0.937,0.895,0.898,1.02,0.915,0.953,0.86,0.926,0.667
RERF-LC-KJ,0.589,0.594,0.662,0.617,0.495,0.624,0.66,0.758,0.632,1.05,–,1,0.852,0.754,0.894,0.787,0.823,0.837,0.818,0.672
SK-LU-1,0.358,0.316,0.34,0.284,0.352,0.527,0.771,0.718,0.691,0.985,1.05,0.959,0.804,0.793,1.2,1.01,1.17,1.06,1.17,0.753
SK-MES-1,0.639,0.626,0.62,0.638,0.583,1.04,1.04,1.08,1.05,1.27,1.16,1.3,1.06,1.26,1.05,1.03,1.06,0.913,1.09,1.14
UMC-11,–,0.469,0.554,0.463,0.477,0.149,0.428,0.375,0.506,0.345,0.312,0.369,0.324,0.331,1.06,1,1.08,0.963,0.961,0.467
